{
  "source": "paper PMC6199744",
  "about": "“Development of Chemical Proteomics for the Folateome and Analysis of the Kinetoplastid Folateome” (ACS Infectious Diseases, 2018)",
  "assay_type_in_all_cases": "binding",
  "key": {"[1]": {"target": "T1, HeLa cell extract proteins (Homo sapiens, UniProt O15162)", "T1 construct": "endogenous in cells; host or cells: HeLa cell extract", "T1 sequence (O15162 1-318)": "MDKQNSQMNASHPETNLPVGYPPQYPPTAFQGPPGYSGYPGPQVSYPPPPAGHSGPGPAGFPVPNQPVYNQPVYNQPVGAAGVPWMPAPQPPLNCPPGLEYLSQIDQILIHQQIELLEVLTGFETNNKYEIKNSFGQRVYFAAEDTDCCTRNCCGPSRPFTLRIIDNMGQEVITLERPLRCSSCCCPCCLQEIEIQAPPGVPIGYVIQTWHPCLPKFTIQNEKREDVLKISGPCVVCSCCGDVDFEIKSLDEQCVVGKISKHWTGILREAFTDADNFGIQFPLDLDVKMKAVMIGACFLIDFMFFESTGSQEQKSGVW"}, "[2]": {"target": "T2, HeLa cell extract proteins (Homo sapiens, UniProt P52597)", "T2 construct": "endogenous in cells; host or cells: HeLa cell extract", "T2 sequence (P52597 1-415)": "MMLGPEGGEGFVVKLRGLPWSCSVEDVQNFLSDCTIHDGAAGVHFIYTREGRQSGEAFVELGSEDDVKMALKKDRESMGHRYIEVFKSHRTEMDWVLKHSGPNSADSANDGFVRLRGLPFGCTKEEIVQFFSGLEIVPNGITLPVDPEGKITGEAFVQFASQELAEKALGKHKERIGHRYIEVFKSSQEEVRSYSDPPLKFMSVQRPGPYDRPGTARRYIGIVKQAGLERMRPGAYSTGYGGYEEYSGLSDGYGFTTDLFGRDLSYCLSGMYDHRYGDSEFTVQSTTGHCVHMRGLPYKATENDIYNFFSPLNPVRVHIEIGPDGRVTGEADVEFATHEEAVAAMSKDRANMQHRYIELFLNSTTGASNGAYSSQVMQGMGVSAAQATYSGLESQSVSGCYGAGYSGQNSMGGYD"}, "[3]": {"target": "T3, HeLa cell extract proteins (Homo sapiens, UniProt P07195)", "T3 construct": "endogenous in cells; host or cells: HeLa cell extract", "T3 sequence (P07195 whole entry)": "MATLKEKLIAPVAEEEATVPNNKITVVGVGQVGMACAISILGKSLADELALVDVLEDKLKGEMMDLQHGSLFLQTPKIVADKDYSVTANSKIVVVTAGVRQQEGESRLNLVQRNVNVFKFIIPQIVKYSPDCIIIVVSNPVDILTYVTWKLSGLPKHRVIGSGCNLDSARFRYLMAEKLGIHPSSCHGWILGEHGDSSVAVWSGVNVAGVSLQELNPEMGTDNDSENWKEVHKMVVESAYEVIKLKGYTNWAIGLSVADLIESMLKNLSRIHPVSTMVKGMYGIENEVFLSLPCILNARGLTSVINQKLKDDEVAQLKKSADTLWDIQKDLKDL"}, "[4]": {"target": "T4, HeLa cell extract proteins (Homo sapiens, UniProt P53992)", "T4 construct": "endogenous in cells; host or cells: HeLa cell extract", "T4 sequence (P53992 1-1094)": "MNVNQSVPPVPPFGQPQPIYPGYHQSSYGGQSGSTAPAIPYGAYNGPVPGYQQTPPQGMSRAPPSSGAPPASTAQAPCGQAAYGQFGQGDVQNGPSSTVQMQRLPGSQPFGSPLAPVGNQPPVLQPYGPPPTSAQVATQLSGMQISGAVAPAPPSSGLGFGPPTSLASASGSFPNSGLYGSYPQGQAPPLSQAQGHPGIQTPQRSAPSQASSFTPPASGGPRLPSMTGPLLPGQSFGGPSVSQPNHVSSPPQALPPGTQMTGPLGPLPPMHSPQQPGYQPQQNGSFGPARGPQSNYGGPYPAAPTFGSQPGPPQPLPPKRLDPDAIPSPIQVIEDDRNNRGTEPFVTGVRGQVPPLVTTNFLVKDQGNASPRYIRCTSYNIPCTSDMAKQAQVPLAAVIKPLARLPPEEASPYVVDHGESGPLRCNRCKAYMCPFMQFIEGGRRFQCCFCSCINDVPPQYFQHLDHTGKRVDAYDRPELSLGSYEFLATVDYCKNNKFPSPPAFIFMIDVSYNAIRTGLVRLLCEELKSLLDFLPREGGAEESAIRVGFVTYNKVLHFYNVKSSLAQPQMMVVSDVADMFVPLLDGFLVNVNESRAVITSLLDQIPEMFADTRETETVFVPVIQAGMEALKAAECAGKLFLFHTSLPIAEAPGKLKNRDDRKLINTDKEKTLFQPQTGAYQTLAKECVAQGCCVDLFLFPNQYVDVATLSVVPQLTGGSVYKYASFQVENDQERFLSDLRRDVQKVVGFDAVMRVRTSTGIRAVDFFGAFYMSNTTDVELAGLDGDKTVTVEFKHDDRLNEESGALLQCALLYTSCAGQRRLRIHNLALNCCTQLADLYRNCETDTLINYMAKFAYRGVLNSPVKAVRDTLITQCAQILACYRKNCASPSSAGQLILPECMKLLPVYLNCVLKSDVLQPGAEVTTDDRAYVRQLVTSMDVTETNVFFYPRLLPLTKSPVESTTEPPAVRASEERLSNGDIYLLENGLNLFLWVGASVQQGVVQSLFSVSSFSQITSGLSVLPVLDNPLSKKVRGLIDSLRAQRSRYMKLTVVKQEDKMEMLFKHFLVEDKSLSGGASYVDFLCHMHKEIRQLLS"}, "[5]": {"target": "T5, HeLa cell extract proteins (Homo sapiens, UniProt Q8IXB1)", "T5 construct": "endogenous in cells; host or cells: HeLa cell extract", "T5 sequence (Q8IXB1 33-793)": "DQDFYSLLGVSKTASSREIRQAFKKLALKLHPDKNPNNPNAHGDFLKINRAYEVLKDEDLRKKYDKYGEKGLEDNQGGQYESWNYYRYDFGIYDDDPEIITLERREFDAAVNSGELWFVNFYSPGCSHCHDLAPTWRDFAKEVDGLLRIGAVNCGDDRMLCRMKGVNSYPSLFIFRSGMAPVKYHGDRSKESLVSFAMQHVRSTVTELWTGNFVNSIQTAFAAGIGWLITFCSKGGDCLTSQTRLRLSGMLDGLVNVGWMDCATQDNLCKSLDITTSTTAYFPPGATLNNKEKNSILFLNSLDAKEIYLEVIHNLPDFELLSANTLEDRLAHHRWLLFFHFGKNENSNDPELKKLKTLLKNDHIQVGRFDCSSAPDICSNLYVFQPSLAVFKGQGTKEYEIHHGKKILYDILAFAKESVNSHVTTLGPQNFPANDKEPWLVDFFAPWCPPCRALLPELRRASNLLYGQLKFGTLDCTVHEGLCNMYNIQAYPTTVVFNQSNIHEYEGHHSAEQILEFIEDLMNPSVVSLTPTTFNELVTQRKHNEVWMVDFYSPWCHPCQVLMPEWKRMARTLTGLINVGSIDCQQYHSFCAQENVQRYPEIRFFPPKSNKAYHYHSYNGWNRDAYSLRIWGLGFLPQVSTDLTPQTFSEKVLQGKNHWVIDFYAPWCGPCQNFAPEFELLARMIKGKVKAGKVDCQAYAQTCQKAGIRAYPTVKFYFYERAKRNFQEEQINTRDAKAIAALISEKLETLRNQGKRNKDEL"}, "[6]": {"target": "T6, HeLa cell extract proteins (Homo sapiens, UniProt P10809)", "T6 construct": "endogenous in cells; host or cells: HeLa cell extract", "T6 sequence (P10809 27-573)": "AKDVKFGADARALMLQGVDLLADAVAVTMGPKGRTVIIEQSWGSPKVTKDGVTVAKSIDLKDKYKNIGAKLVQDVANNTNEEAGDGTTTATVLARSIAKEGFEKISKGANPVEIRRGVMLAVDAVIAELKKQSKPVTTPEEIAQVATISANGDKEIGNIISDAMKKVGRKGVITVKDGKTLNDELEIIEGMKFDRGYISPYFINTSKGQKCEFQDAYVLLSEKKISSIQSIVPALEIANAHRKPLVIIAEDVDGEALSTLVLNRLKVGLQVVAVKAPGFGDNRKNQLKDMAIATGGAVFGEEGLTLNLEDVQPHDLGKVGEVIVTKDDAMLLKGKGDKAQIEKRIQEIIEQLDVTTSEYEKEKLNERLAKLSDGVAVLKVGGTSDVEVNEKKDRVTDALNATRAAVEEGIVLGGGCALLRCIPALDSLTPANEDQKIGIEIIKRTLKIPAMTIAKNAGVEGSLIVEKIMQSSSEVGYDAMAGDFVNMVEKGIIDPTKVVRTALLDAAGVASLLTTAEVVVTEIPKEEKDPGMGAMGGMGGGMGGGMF"}, "[7]": {"target": "T7, HeLa cell extract proteins (Homo sapiens, UniProt P07814)", "T7 construct": "endogenous in cells; host or cells: HeLa cell extract", "T7 sequence (P07814 whole entry)": "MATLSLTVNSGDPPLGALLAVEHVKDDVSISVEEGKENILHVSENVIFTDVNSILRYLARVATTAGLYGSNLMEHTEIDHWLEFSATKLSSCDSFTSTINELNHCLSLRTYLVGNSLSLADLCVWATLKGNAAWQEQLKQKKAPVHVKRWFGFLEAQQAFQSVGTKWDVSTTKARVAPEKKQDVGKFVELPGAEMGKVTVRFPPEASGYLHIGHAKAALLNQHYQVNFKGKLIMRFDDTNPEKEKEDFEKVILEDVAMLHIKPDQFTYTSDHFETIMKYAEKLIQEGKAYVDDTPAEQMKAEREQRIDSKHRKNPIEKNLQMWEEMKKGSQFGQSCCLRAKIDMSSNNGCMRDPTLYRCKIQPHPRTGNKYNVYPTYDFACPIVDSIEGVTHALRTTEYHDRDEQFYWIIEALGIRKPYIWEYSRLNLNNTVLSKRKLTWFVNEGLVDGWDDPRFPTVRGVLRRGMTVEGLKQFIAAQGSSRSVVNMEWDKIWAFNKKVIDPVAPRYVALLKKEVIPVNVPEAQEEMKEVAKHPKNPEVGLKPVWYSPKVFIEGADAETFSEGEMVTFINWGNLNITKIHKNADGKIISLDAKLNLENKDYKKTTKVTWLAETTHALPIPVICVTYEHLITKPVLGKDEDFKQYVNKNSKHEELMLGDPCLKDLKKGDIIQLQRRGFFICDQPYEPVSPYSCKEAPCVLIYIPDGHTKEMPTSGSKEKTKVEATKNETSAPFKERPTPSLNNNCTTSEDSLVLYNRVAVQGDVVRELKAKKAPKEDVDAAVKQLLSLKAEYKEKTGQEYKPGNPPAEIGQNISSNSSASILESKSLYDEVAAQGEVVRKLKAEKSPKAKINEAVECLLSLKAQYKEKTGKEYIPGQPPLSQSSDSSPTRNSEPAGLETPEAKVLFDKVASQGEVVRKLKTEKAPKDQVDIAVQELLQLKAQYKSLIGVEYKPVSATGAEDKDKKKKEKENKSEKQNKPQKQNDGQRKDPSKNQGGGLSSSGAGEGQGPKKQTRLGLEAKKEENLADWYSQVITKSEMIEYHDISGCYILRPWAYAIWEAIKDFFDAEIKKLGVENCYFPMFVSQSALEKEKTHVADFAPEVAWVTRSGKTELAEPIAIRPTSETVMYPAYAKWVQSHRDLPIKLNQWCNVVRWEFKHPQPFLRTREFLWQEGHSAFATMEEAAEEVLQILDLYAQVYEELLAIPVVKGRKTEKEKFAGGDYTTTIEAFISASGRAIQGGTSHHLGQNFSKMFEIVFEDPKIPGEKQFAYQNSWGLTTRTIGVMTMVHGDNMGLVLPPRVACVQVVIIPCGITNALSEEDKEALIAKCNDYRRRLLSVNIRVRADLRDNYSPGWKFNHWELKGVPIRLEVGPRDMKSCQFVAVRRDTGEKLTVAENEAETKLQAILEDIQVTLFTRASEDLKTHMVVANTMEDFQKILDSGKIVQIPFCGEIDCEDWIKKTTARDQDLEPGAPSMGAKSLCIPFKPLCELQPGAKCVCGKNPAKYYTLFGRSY"}, "[8]": {"conditions": "HeLa, protein EPRS (BI[…]-TRNA SYNTHETASE)"}, "[9]": {"conditions": "HeLa, protein LDHB (L-LACTATE DEH[…] CHAIN.)"}},
  "note": "Like-named read-outs stand apart in the source and are kept apart here.",
  "data": [
    {"smiles": "Nc1nc2c(c(=O)[nH]1)N(C=O)C(CNc1ccc(C(=O)N[C@@H](CCC(=O)O)C(=O)O)cc1)CN2", "note": "(stereo partly shown) [LEU, leucovorin]", "values": [
      {"measurement": "fold changes relative to vehicle control", "setting": "[1]; HeLa, captured protein PLSCR1", "value": 1.01},
      {"measurement": "fold changes relative to vehicle control", "setting": "[2]; HeLa, captured protein HNRNPF", "value": 0.98},
      {"measurement": "fold changes relative to vehicle control", "setting": "[3]; HeLa, captured protein LDHB", "value": 1.21},
      {"measurement": "fold changes relative to vehicle control", "setting": "[4]; HeLa, protein SEC24C", "value": 0.98},
      {"measurement": "fold changes relative to vehicle control", "setting": "[5]; HeLa, protein DNAJC10", "value": 0.89},
      {"measurement": "fold changes relative to vehicle control", "setting": "[6]; HeLa, protein HSPD1", "value": 1.12},
      {"measurement": "fold changes relative to vehicle control", "setting": "[7]; [8]", "value": 1.11}
    ]},
    {"smiles": "Nc1nc2[nH]cc(CCc3ccc(C(=O)N[C@@H](CCC(=O)O)C(=O)O)cc3)c2c(=O)[nH]1", "note": "[PTX, pemetrexed]", "values": [
      {"measurement": "fold changes relative to vehicle control", "setting": "[1]", "value": 0.96},
      {"measurement": "fold changes relative to vehicle control", "setting": "[2]", "value": 0.87},
      {"measurement": "fold changes relative to vehicle control", "setting": "[3]", "value": 1.35},
      {"measurement": "fold changes relative to vehicle control", "setting": "[4]", "value": 0.96},
      {"measurement": "fold changes relative to vehicle control", "setting": "[5]", "value": 0.91},
      {"measurement": "fold changes relative to vehicle control", "setting": "[6]", "value": 1.14},
      {"measurement": "fold changes relative to vehicle control", "setting": "[7]", "value": 1.06}
    ]},
    {"smiles": "CCCCCCOc1ccc(Cc2cnc(N)nc2N)cc1", "note": "[compound 1]", "values": [
      {"measurement": "fold changes relative to vehicle control", "setting": "[1]; HeLa, protein PLSCR1", "value": 1.02},
      {"measurement": "fold changes relative to vehicle control", "setting": "[2]; HeLa, protein HNRNPF", "value": 0.95},
      {"measurement": "fold changes relative to vehicle control", "setting": "[3]; [9]", "value": 1.75, "unit": "fold"},
      {"measurement": "fold changes relative to vehicle control", "setting": "[4]; protein SEC24C, HeLa", "value": 1.03},
      {"measurement": "fold changes relative to vehicle control", "setting": "[5]; HeLa, protein DNAJC10", "value": 0.89},
      {"measurement": "fold changes relative to vehicle control", "setting": "[6]; protein HSPD1, HeLa", "value": 1.32},
      {"measurement": "fold changes relative to vehicle control", "setting": "[7]; protein EPRS, HeLa", "value": 1.06}
    ]},
    {"smiles": "CCCCCCOc1cccc(Cc2cnc(N)nc2N)c1", "note": "[compound 2]", "values": [
      {"measurement": "fold changes relative to vehicle control", "setting": "[1]; HeLa, protein PLSCR1", "value": 0.86},
      {"measurement": "fold changes relative to vehicle control", "setting": "[2]; HeLa, protein HNRNPF", "value": 0.88},
      {"measurement": "fold changes relative to vehicle control", "setting": "[3]; HeLa, protein LDHB (L-LACTATE DEHYDROGENASE B CHAIN.)", "value": 2.97, "unit": "fold"},
      {"measurement": "fold changes relative to vehicle control", "setting": "[4]; protein SEC24C, HeLa", "value": 1.01},
      {"measurement": "fold changes relative to vehicle control", "setting": "[5]; HeLa, protein DNAJC10", "value": 0.85},
      {"measurement": "fold changes relative to vehicle control", "setting": "[6]; protein HSPD1, HeLa", "value": 1.71},
      {"measurement": "fold changes relative to vehicle control", "setting": "[7]; protein EPRS, HeLa", "value": 1.25}
    ]},
    {"smiles": "Nc1nc2cccc(-c3ccccc3)c2n1Cc1ccc(Cl)c(Cl)c1", "note": "[compound 3]", "values": [
      {"measurement": "fold changes relative to vehicle control", "setting": "[1]; HeLa, protein PLSCR1", "value": 0.98},
      {"measurement": "fold changes relative to vehicle control", "setting": "[2]; HeLa, protein HNRNPF", "value": 1.36},
      {"measurement": "fold changes relative to vehicle control", "setting": "[3]; [9]", "value": 0.94, "unit": "fold"},
      {"measurement": "fold changes relative to vehicle control", "setting": "[4]; protein SEC24C, HeLa", "value": 1.28},
      {"measurement": "fold changes relative to vehicle control", "setting": "[5]; HeLa, protein DNAJC10", "value": 1.04},
      {"measurement": "fold changes relative to vehicle control", "setting": "[6]; protein HSPD1, HeLa", "value": 1.03},
      {"measurement": "fold changes relative to vehicle control", "setting": "[7]; protein EPRS, HeLa", "value": 1.13}
    ]},
    {"smiles": "NCCOCCOCC(=O)Nc1nc2ncc(CNc3ccc(C(=O)NC(CCC(=O)O)C(=O)O)cc3)nc2c(=O)[nH]1", "note": "(stereo not shown) [compound 6]", "values": [
      {"measurement": "fold changes relative to vehicle control", "setting": "[1]; HeLa, captured protein PLSCR1", "value": 0.96},
      {"measurement": "fold changes relative to vehicle control", "setting": "[2]; HeLa, captured protein HNRNPF", "value": 0.92},
      {"measurement": "fold changes relative to vehicle control", "setting": "[3]; HeLa, captured protein LDHB", "value": 1.42},
      {"measurement": "fold changes relative to vehicle control", "setting": "[4]; HeLa, protein SEC24C", "value": 0.92},
      {"measurement": "fold changes relative to vehicle control", "setting": "[5]; HeLa, protein DNAJC10", "value": 0.89},
      {"measurement": "fold changes relative to vehicle control", "setting": "[6]; HeLa, protein HSPD1", "value": 1.21},
      {"measurement": "fold changes relative to vehicle control", "setting": "[7]; [8]", "value": 1.19}
    ]},
    {"smiles": "NCCCNc1ccc(C(=O)NC(CCC(=O)O)C(=O)O)cc1", "note": "(stereo not shown) [compound 7]", "values": [
      {"measurement": "fold changes relative to vehicle control", "setting": "[1]; HeLa, captured protein PLSCR1", "value": 1.07},
      {"measurement": "fold changes relative to vehicle control", "setting": "[2]; HeLa, captured protein HNRNPF", "value": 0.95},
      {"measurement": "fold changes relative to vehicle control", "setting": "[3]; HeLa, captured protein LDHB", "value": 0.96},
      {"measurement": "fold changes relative to vehicle control", "setting": "[4]; HeLa, protein SEC24C", "value": 1.14},
      {"measurement": "fold changes relative to vehicle control", "setting": "[5]; HeLa, protein DNAJC10", "value": 0.94},
      {"measurement": "fold changes relative to vehicle control", "setting": "[6]; HeLa, protein HSPD1", "value": 1},
      {"measurement": "fold changes relative to vehicle control", "setting": "[7]; [8]", "value": 1.09}
    ]}
  ]
}
